The NIST ThermoML archive (doi:10.1021/acs.jced.6b00293)
Numbers after ± are expanded uncertainties.

What was measured:
[1] = Boiling temperature at pressure P; conditions: Liquid, Ebulliometric method (Recirculating still)
[2] = Liquid, Ebulliometric method (Recirculating still)

Boiling temperature at pressure P ([1]; 20 kPa)	Boiling temperature at pressure P ([1]; 40 kPa)	Boiling temperature at pressure P ([1]; 60 kPa)	Boiling temperature at pressure P ([1]; 80 kPa)	Boiling temperature at pressure P ([1]; 101.3 kPa)	vapor or sublimation pressure ([2]; 315.14 K)	vapor or sublimation pressure ([2]; 329.42 K)	vapor or sublimation pressure ([2]; 338.61 K)	vapor or sublimation pressure ([2]; 345.53 K)	vapor or sublimation pressure ([2]; 351.62 K)	Compound
34.77 ± 0.46 °C	52.32 ± 0.65 °C	63.93 ± 0.68 °C	72.94 ± 0.72 °C	80.96 ± 0.81 °C	–	–	–	–	–	C1CCCCC1 [cyclohexane]
–	–	–	–	–	20 ± 1 kPa	40 ± 1 kPa	60 ± 1 kPa	80 ± 2 kPa	101.3 ± 1.8 kPa	CCO [ethanol]
